Experimental data as given in paper PMC7855930, “Nontoxic Cobalt(III) Schiff Base Complexes with Broad‐Spectrum Antifungal Activity” (Chemistry (Weinheim an Der Bergstrasse, Germany), 2020).
≈ marks a conversion by molar mass, not a printed value. Like-named read-outs stand apart in the source and are kept apart here. Starred links: 1 amine or outer side, 2 acyl side, 3 side chain; linkers in the order of their positions; H or OH if unused. Positions of bridges follow the written chain, without caps; N, C: chain ends. Non-standard residues stand in square brackets, D forms with d. Residues, ends and D or L forms follow the SMILES beside them. *: point of attachment. hTyr(3S-OH,4S-OH,3'-OSO3H) = N[C@H](C(=O)O)[C@H](O)[C@@H](O)c1ccc(O)c(OS(=O)(=O)O)c1; Orn(4R-OH,5R-OH) = O=C([C@H](C[C@@H](O)[C@@H](O)N[*:3])N[*:1])[*:2]; Pro(3S-OH,4S-Me) = C[C@H]1CN[C@H](C(=O)O)[C@H]1O; X1 = CCCCCOc1ccc(-c2cc(-c3ccc(C(=O)*)cc3)no2)cc1; Gln(3R-OH) = NC(=O)C[C@@H](O)[C@H](N)C(=O)O; Hyp = O=C(O)[C@@H]1C[C@@H](O)CN1

Key:
[1] = test system: Staphylococcus aureus ATCC 43300 (MRSA); experiment: CO-ADD bacterial broth microdilution MIC assay; assay type: cell-based; details: Staphylococcus aureus, 18 h, read-out: MIC Sa (Staphylococcus aureus ATCC 43300, MRSA)
Description: (§1) CO-ADD High Throughput Screening
(§2) Bacterial broth microdilution minimum inhibitory concentration (MIC) assay Bacterial strains were cultured in Cation-adjusted Mueller Hinton broth (CAMHB; Bacto Laboratories 212322) at 37 °C overnight. A sample of each culture was then diluted 40-fold in fresh CAMHB and incubated at 37 °C for 1.5-3 h. The resultant mid-log phase cultures were diluted with CAMHB (CFU/mL measured by OD600), then added to each well of the compound-containing plates (384-well non-binding surface (NBS) plates; Corning CLS3640), giving a cell density of 5 × 10^5 CFU/mL and a total volume of 50 µL. Plates were covered and incubated at 37 °C for 18 h without shaking. Inhibition of bacterial growth was determined measuring absorbance at 600 nm (OD600), using media only as negative control and bacteria without inhibitors as positive control. MIC values were determined as the lowest concentration at which the growth was inhibited at ≥ 80%. Colistin sulfate (Sigma C4461) and vancomycin HCl (Sigma 861987) were used as positive inhibitor controls on each plate for Gram-negative and Gram-positive bacteria, respectively.
(§3) Figure S1. 1H NMR (400 MHz) of [Co(ATS)(DMAP)2]NO3 (3) in DMSO-d6.
(§4) (1 picture or pasted object on this page, not shown here)

[2] = test system: C. neoformans ATCC 208821; experiment: Antifungal MIC assay (broth microdilution in YNB); assay type: cell-based, Cryptococcus neoformans; details: Cryptococcus neoformans
Source text: (§5) Yeast strains: Candida albicans (ATCC 90028, NCCLS 11), Cryptococcus neoformans (ATCC 208821, H99 type strain), Candida tropicalis (ATCC 750, type strain), Candida glabrata (ATCC 90030, NCCLS 84) and Cryptococcus deuterogattii (ATCC 32609, type strain) were obtained from the American Type Culture Collection (ATCC). Cryptococcus deuterogattii (CBS 7750), Candida auris (CBS 10913) and Candida auris (CBS 12373) were obtained from the CBS‐KNAW culture collection. The strains were maintained on glycerol/YPD (yeast extract‐peptone dextrose) broth (20:80 v/v) at −80 °C.
(§6) Antifungal minimum inhibitory concentration (MIC) assay: The cobalt complexes and antifungal control compounds were serially diluted in 50 μL of Yeast Nitrogen Broth (YNB; BD, Cat No. 233520 supplemented with 2 % glucose and 10 mM ammonium sulfate) two‐fold across the wells of non‐binding surface (NBS) 96‐well plates (Corning; Cat. No. 3641). Plates were set up in quadruplicate for each strain tested, and two biological replicates were conducted on separate assay days.
(§7) Yeast strains were cultured from glycerol onto YPD (Becton Dickinson 242720) agar at 30 °C for 72 h. For each strain, a minimum of five single colonies were taken from the agar plate and dissolved in sterile water and adjusted to form a yeast suspension of 1×10^6 to 5×10^6 CFU mL^−1 (as determined by OD530). The suspension was subsequently diluted into YNB media, and added to each well of the compound containing plates, giving a final cell density of 2.5×10^3 CFU mL^−1 and a total volume of 100 μL. Plates were covered and incubated at 35 °C for 36 h without shaking.
(§8) Growth inhibition of all strains was determined visually where the MIC was recorded as the lowest compound concentration with no visible growth. Fluconazole (Sigma F8929), ketoconazole (Sigma K1003) and micafungin (Sigma SML2288) were used as internal positive inhibitor controls for every strain tested.

C. albicans ATCC 90028 = experiment: Antifungal MIC assay (broth microdilution in YNB); assay type: cell-based, Candida albicans; details: Candida albicans
Source text: as §5, §6, §7, §8

C. auris CBS 10913 = experiment: Antifungal MIC assay (broth microdilution in YNB); assay type: cell-based, Candida auris; details: Candidozyma auris
Source text: as §5, §6, §7, §8

C. auris CBS 12373 = experiment: Antifungal MIC assay (broth microdilution in YNB); assay type: cell-based, Candida auris; details: Candidozyma auris
Source text: as §5, §6, §7, §8

C. glabrata ATCC 90030 = experiment: Antifungal MIC assay (broth microdilution in YNB); assay type: cell-based, Candida glabrata; details: Nakaseomyces glabratus
Source text: as §5, §6, §7, §8

[3] = test system: C. deuterogattii CBS 7750; experiment: Antifungal MIC assay (broth microdilution in YNB); assay type: cell-based, Cryptococcus deuterogattii; details: Cryptococcus deuterogattii
Source text: as §5, §6, §7, §8

[4] = test system: C. deuterogattii ATCC 32609; experiment: Antifungal MIC assay (broth microdilution in YNB); assay type: cell-based, Cryptococcus deuterogattii; details: Cryptococcus deuterogattii
Source text: as §5, §6, §7, §8

C. tropicalis ATCC 750 = experiment: Antifungal MIC assay (broth microdilution in YNB); assay type: cell-based, Candida tropicalis; details: Candida tropicalis
Source text: as §5, §6, §7, §8

[5] = test system: Klebsiella pneumoniae ATCC 700603 (K6; ESBL SHV-18); assay type: cell-based; details: CAMHB, 37 °C, 18 h, ≥ 80% inhibition
Description: as §1, §2, §3, §4

[6] = test system: Pseudomonas aeruginosa ATCC 27853; experiment: CO-ADD bacterial broth microdilution MIC assay; assay type: cell-based; details: CAMHB, 37 °C, 18 h, ≥ 80% inhibition
Description: as §1, §2, §3, §4

[7] = test system: Escherichia coli ATCC 25922; experiment: CO-ADD bacterial broth microdilution MIC assay; assay type: cell-based; details: CAMHB, 37 °C, 18 h, ≥ 80% inhibition
Description: as §1, §2, §3, §4

[8] = test system: Acinetobacter baumannii ATCC 19606; experiment: CO-ADD bacterial broth microdilution MIC assay; assay type: cell-based; details: CAMHB, 37 °C, 18 h, ≥ 80% inhibition
Description: as §1, §2, §3, §4

[9] = ATCC208821, Table S1, read-out: MIC Cryptococcus neoformans ATCC 208821
[10] = ATCC208821, range of MICs, n=8, 35 °C, 36 h, visual, read-out: MIC C. neoformans ATCC 208821
[11] = ATCC90028, Table S1, read-out: MIC Candida albicans ATCC 90028
[12] = ATCC90028, range of MICs, n=8, 35 °C, 36 h, visual, read-out: MIC C. albicans ATCC 90028
[13] = CBS10913, Table S1, read-out: MIC Candida auris CBS 10913
[14] = CBS10913, range of MICs, n=8, 35 °C, 36 h, visual, read-out: MIC C. auris CBS 10913
[15] = CBS12373, Table S1, read-out: MIC Candida auris CBS 12373
[16] = CBS12373, range of MICs, n=8, 35 °C, 36 h, visual, read-out: MIC C. auris CBS 12373
[17] = ATCC90030, Table S1, read-out: MIC Candida glabrata ATCC 90030
[18] = ATCC90030, range of MICs, n=8, 35 °C, 36 h, visual, read-out: MIC C. glabrata ATCC 90030
[19] = CBS7750, Table S1, read-out: MIC Cryptococcus deuterogattii CBS 7750
[20] = CBS7750, range of MICs, n=8, 35 °C, 36 h, visual, read-out: MIC C. deuterogattii CBS 7750
[21] = ATCC32609, Table S1, read-out: MIC Cryptococcus deuterogattii ATCC 32609
[22] = ATCC32609, range of MICs, n=8, 35 °C, 36 h, visual, read-out: MIC C. deuterogattii ATCC 32609
[23] = ATCC750, Table S1, read-out: MIC Candida tropicalis ATCC 750
[24] = ATCC750, range of MICs, n=8, 35 °C, 36 h, visual, read-out: MIC C. tropicalis ATCC 750

Row | MIC [2, 9] | MIC [2, 10] | MIC (C. albicans ATCC 90028; [11]) | MIC (C. albicans ATCC 90028; [12]) | MIC (C. auris CBS 10913; [13]) | MIC (C. auris CBS 10913; [14]) | MIC (C. auris CBS 12373; [15]) | MIC (C. auris CBS 12373; [16]) | MIC (C. glabrata ATCC 90030; [17]) | MIC (C. glabrata ATCC 90030; [18]) | MIC [3, 19] | MIC [3, 20] | MIC [4, 21] | MIC [4, 22] | MIC (C. tropicalis ATCC 750; [23]) | MIC (C. tropicalis ATCC 750; [24]) | Compound | further results
1 |  |  |  |  |  |  |  |  |  |  |  |  |  |  |  |  | CN[C@H](CC(C)C)C(=O)N[C@H]1C(=O)N[C@@H](CC(N)=O)C(=O)N[C@H]2C(=O)N[C@H]3C(=O)N[C@H](C(=O)N[C@H](C(=O)O)c4cc(O)cc(O)c4-c4cc3ccc4O)[C@H](O)c3ccc(c(Cl)c3)Oc3cc2cc(c3O[C@@H]2O[C@H](CO)[C@@H](O)[C@H](O)[C@H]2O[C@H]2C[C@](C)(N)[C@H](O)[C@H](C)O2)Oc2ccc(cc2Cl)[C@H]1O [Van, Vancomycin, reference compound] | MIC [1]: 1 µg/mL (≈ 0.69 µM)
2 |  |  |  |  |  |  |  |  |  |  |  |  |  |  |  |  | CCCCCOc1ccc(-c2cc(-c3ccc(C(=O)N[C@H]4C[C@@H](O)[C@@H](O)NC(=O)[C@@H]5[C@@H](O)[C@@H](C)CN5C(=O)[C@H]([C@H](O)CC(N)=O)NC(=O)[C@H]([C@H](O)[C@@H](O)c5ccc(O)c(OS(=O)(=O)O)c5)NC(=O)[C@@H]5C[C@@H](O)CN5C(=O)[C@H]([C@@H](C)O)NC4=O)cc3)no2)cc1 [MFG, Micafungin, reference compound] (X1-[Orn(4R-OH,5R-OH)]T[Hyp][hTyr(3S-OH,4S-OH,3'-OSO3H)][Gln(3R-OH)][Pro(3S-OH,4S-Me)]; lactam 1-C) | MIC ([2]; ATCC208821, 36 h, read-out: MIC C. neoformans ATCC 208821): > 49.5 µM; MIC ([2]; ATCC208821, read-out: MIC Cryptococcus neoformans ATCC 208821): > 64 µg/mL; MIC (C. albicans ATCC 90028; ATCC90028, 36 h, read-out: MIC C. albicans ATCC 90028): ≤ 0.39 µM; MIC (C. albicans ATCC 90028; ATCC90028, read-out: MIC Candida albicans ATCC 90028): 0.5 µg/mL; MIC (C. auris CBS 10913; CBS10913, 36 h, read-out: MIC C. auris CBS 10913): ≤ 0.39 µM; MIC (C. auris CBS 12373; CBS12373, 36 h, read-out: MIC C. auris CBS 12373): ≤ 0.39 µM; MIC (C. auris CBS 12373; CBS12373, read-out: MIC Candida auris CBS 12373): 0.5 µg/mL; MIC (C. glabrata ATCC 90030; ATCC90030, 36 h, read-out: MIC C. glabrata ATCC 90030): ≤ 0.39 µM; MIC (C. glabrata ATCC 90030; ATCC90030, read-out: MIC Candida glabrata ATCC 90030): 0.5 µg/mL; MIC ([3]; CBS7750, 36 h, read-out: MIC C. deuterogattii CBS 7750): > 49.5 µM; MIC ([3]; CBS7750, read-out: MIC Cryptococcus deuterogattii CBS 7750): > 64 µg/mL; MIC ([4]; ATCC32609, 36 h, read-out: MIC C. deuterogattii ATCC 32609): > 49.5 µM; MIC ([4]; ATCC32609, read-out: MIC Cryptococcus deuterogattii ATCC 32609): > 64 µg/mL; MIC (C. tropicalis ATCC 750; ATCC750, 36 h, read-out: MIC C. tropicalis ATCC 750): ≤ 0.39 µM; MIC (C. tropicalis ATCC 750; ATCC750, read-out: MIC Candida tropicalis ATCC 750): 0.5 µg/mL
3 |  |  |  |  |  |  |  |  |  |  |  |  |  |  |  |  | Colistin [reference compound] | MIC Kp (Klebsiella pneumoniae ATCC 700603) [5]: 0.25 µg/mL; MIC Pa (Pseudomonas aeruginosa ATCC 27853) [6]: 0.25 µg/mL; MIC Ec (Escherichia coli ATCC 25922) [7]: 0.125 µg/mL; MIC Ab (Acinetobacter baumannii ATCC 19606) [8]: 0.25 µg/mL
4 | 16 µg/mL | 52.2 µM | 2 µg/mL | 6.53 µM | 16 µg/mL | 52.2 µM | > 64 µg/mL | > 209 µM | > 64 µg/mL | > 209 µM | 8 µg/mL | 26.1 µM | 8 to 16 µg/mL | 26.1 to 52.2 µM | > 64 µg/mL | > 209 µM | OC(Cn1cncn1)(Cn1cncn1)c1ccc(F)cc1F [FCZ, Fluconazole, reference compound] | 
5 | 1 to 2 µg/mL | 1.88 to 3.76 µM | 0.5 µg/mL | ≤ 0.94 µM | 0.5 µg/mL | ≤ 0.94 µM | 2 µg/mL | 3.76 µM | 32 µg/mL | 60.2 µM | 0.5 to 1 µg/mL | 0.94 to 1.88 µM | 1 µg/mL | 1.88 µM | 16 µg/mL | 30.1 µM | CC(=O)N1CCN(c2ccc(OCC3COC(Cn4ccnc4)(c4ccc(Cl)cc4Cl)O3)cc2)CC1 (stereo not shown) [KCZ, Ketoconazole, reference compound] | 
